Experimental data as given in PubChem BioAssay AID1259407 (Chemical Carcinogenesis Research Information System (CCRIS), 2018).
Active and inactive are the calls of the source. The rule behind the calls is not given here.

Tested on: CCRIS mutagenicity, Ames/micronucleus/aberration tests
Test: CCRIS mutagenicity studies
[1] = Test System: AMES SALMONELLA TYPHIMURIUM, Strain/Indicator: TA1535, Metabolic Activation: NONE, Method: PREINCUBATION
[2] = Test System: AMES SALMONELLA TYPHIMURIUM, Strain/Indicator: TA1537, Metabolic Activation: NONE, Method: PREINCUBATION

Q: With `O=C(O)C[C@H](O)C[C@H](O)/C=C/c1c(C2CC2)nc2ccccc2c1-c1ccc(F)cc1` as the compound, how does the mutagenic call (Test System: AMES SALMONELLA TYPHIMURIUM, Strain/Indicator: TA98, Metabolic Activation: NONE, Method: PREINCUBATION) read?
A: inactive; negative

Q: And the mutagenic call (Test System: AMES SALMONELLA TYPHIMURIUM, Strain/Indicator: TA98, Metabolic Activation: S-9, Method: PREINCUBATION)?
A: inactive; negative

Q: And the mutagenic call (Test System: AMES SALMONELLA TYPHIMURIUM, Strain/Indicator: TA100, Metabolic Activation: NONE, Method: PREINCUBATION)?
A: inactive; negative

Q: And the mutagenic call (Test System: AMES SALMONELLA TYPHIMURIUM, Strain/Indicator: TA100, Metabolic Activation: S-9, Method: PREINCUBATION)?
A: inactive; negative

Q: What about the mutagenic call [1] of the same compound?
A: inactive; negative

Q: And the mutagenic call (Test System: AMES SALMONELLA TYPHIMURIUM, Strain/Indicator: TA1535, Metabolic Activation: S-9, Method: PREINCUBATION)?
A: inactive; negative

Q: And the mutagenic call [2]?
A: inactive; negative

Q: What about the mutagenic call (Test System: AMES SALMONELLA TYPHIMURIUM, Strain/Indicator: TA1537, Metabolic Activation: S-9, Method: PREINCUBATION) of the same compound?
A: inactive; negative

Q: And the mutagenic call (Test System: ESCHERICHIA COLI, Strain/Indicator: WP2 UVR A, Metabolic Activation: NONE, Method: PREINCUBATION)?
A: inactive; negative

Q: What about the mutagenic call (Test System: ESCHERICHIA COLI, Strain/Indicator: WP2 UVR A, Metabolic Activation: S-9, Method: PREINCUBATION) of the same compound?
A: inactive; negative

Q: And the mutagenic call (Test System: UDS RAT HEPATOCYTES IN VIVO, Strain/Indicator: CRJ:CD(SD)/THYMIDINE INCORPORATION, Metabolic Activation: NONE, Method: AUTORADIOGRAPHY)?
A: inactive; negative

Q: For `O=CCCCC=O`, which mutagenic call (End Point: IN VITRO CHROMOSOMAL ABERRATIONS, Test System: CHL CELLS, Metabolic Activation: RAT, LIVER, S-9, SODIUM PHENOBARBITAL AND 5,6-BENZOFLAVONE) is on record?
A: active; positive (structural and ploidy changes)

Q: And the mutagenic call (End Point: IN VITRO CHROMOSOMAL ABERRATIONS, Test System: SYRIAN HAMSTER EMBRYO (SHE) CELLS, Metabolic Activation: NONE)?
A: inactive; negative

Q: What about the mutagenic call (End Point: IN VITRO CHROMOSOMAL ABERRATIONS, Test System: SYRIAN HAMSTER EMBRYO (SHE) CELLS, Metabolic Activation: RAT, LIVER, S-9) of the same compound?
A: inactive; negative

Q: And the mutagenic call (End Point: In vitro micronucleus, Test System: Chinese hamster V79 cells, Metabolic Activation: None)?
A: active; positive (concentrations of 10 um and above strongly inhibited growth of cells,

Q: And the mutagenic call (End Point: In vitro micronucleus, Test System: Chinese hamster V79 cells, Metabolic Activation: None, Method: FISH)?
A: inactive; positive (majority were centromer negative. authors attribute results as showing

Q: What about the mutagenic call (Test System: AMES SALMONELLA TYPHIMURIUM, Strain/Indicator: TA97A, Metabolic Activation: NONE, Method: STANDARD PLATE) of the same compound?
A: inactive; negative

Q: And the mutagenic call (Test System: AMES SALMONELLA TYPHIMURIUM, Strain/Indicator: TA98, Metabolic Activation: HAMSTER LIVER S-9, AROCLOR-1254 (10%), Method: PREINCUBATION)?
A: inactive; negative

Q: And the mutagenic call (Test System: AMES SALMONELLA TYPHIMURIUM, Strain/Indicator: TA98, Metabolic Activation: NONE, Method: STANDARD PLATE)?
A: inactive; negative

Q: And the mutagenic call (Test System: AMES SALMONELLA TYPHIMURIUM, Strain/Indicator: TA98, Metabolic Activation: RAT LIVER S-9, AROCLOR-1254 (10%), Method: PREINCUBATION)?
A: inactive; negative

Q: And the mutagenic call (Test System: AMES SALMONELLA TYPHIMURIUM, Strain/Indicator: TA98, Metabolic Activation: RAT LIVER S-9, PHENOBARBITAL AND BETA-NAPHTHOFLAVONE, Method: PREINCUBATION)?
A: inactive; negative

Q: What about the mutagenic call (Test System: AMES SALMONELLA TYPHIMURIUM, Strain/Indicator: TA100, Metabolic Activation: HAMSTER LIVER S-9, AROCLOR-1254 (10%), Method: PREINCUBATION) of the same compound?
A: inactive; negative

Q: And the mutagenic call (Test System: AMES SALMONELLA TYPHIMURIUM, Strain/Indicator: TA100, Metabolic Activation: MOUSE LIVER S-9, AROCLOR 1254, Method: PREINCUBATION)?
A: active; positive

Q: What about the mutagenic call (Test System: AMES SALMONELLA TYPHIMURIUM, Strain/Indicator: TA100, Metabolic Activation: NONE, Method: STANDARD PLATE) of the same compound?
A: inactive; negative

Q: What about the mutagenic call (Test System: AMES SALMONELLA TYPHIMURIUM, Strain/Indicator: TA100, Metabolic Activation: RAT LIVER S-9, AROCLOR 1254, Method: PREINCUBATION) of the same compound?
A: active; positive

Q: And the mutagenic call (Test System: AMES SALMONELLA TYPHIMURIUM, Strain/Indicator: TA100, Metabolic Activation: RAT LIVER S-9, PHENOBARBITAL AND BETA-NAPHTHOFLAVONE NONE, Method: PREINCUBATION)?
A: inactive; negative

Q: And the mutagenic call (Test System: AMES SALMONELLA TYPHIMURIUM, Strain/Indicator: TA102, Metabolic Activation: MOUSE LIVER S-9, AROCLOR 1254, Method: PREINCUBATION)?
A: active; positive

Q: What about the mutagenic call (Test System: AMES SALMONELLA TYPHIMURIUM, Strain/Indicator: TA102, Metabolic Activation: MOUSE LIVER S-9, AROCLOR-1254 (10%), Method: PREINCUBATION) of the same compound?
A: active; positive

Q: What about the mutagenic call (Test System: AMES SALMONELLA TYPHIMURIUM, Strain/Indicator: TA102, Metabolic Activation: NONE, Method: PREINCUBATION) of the same compound?
A: active; positive

Q: And the mutagenic call (Test System: AMES SALMONELLA TYPHIMURIUM, Strain/Indicator: TA102, Metabolic Activation: RAT LIVER S-9, AROCLOR 1254, Method: PREINCUBATION)?
A: active; positive

Q: And the mutagenic call (Test System: AMES SALMONELLA TYPHIMURIUM, Strain/Indicator: TA102, Metabolic Activation: RAT LIVER S-9, AROCLOR-1254 (10%), Method: PREINCUBATION)?
A: active; positive

Q: What about the mutagenic call (Test System: AMES SALMONELLA TYPHIMURIUM, Strain/Indicator: TA104, Metabolic Activation: MOUSE LIVER S-9, AROCLOR 1254, Method: PREINCUBATION) of the same compound?
A: active; positive

Q: What about the mutagenic call (Test System: AMES SALMONELLA TYPHIMURIUM, Strain/Indicator: TA104, Metabolic Activation: MOUSE LIVER S-9, AROCLOR-1254 (10%), Method: PREINCUBATION) of the same compound?
A: active; positive

Q: And the mutagenic call (Test System: AMES SALMONELLA TYPHIMURIUM, Strain/Indicator: TA104, Metabolic Activation: NONE, Method: PREINCUBATION)?
A: active; positive

Q: What about the mutagenic call (Test System: AMES SALMONELLA TYPHIMURIUM, Strain/Indicator: TA104, Metabolic Activation: NONE, Method: STANDARD PLATE) of the same compound?
A: inactive; negative

Q: What about the mutagenic call (Test System: AMES SALMONELLA TYPHIMURIUM, Strain/Indicator: TA104, Metabolic Activation: RAT LIVER S-9, AROCLOR 1254, Method: PREINCUBATION) of the same compound?
A: active; positive

Q: And the mutagenic call (Test System: AMES SALMONELLA TYPHIMURIUM, Strain/Indicator: TA104, Metabolic Activation: RAT LIVER S-9, AROCLOR-1254 (10%), Method: PREINCUBATION)?
A: active; positive

Q: And the mutagenic call (Test System: AMES SALMONELLA TYPHIMURIUM, Strain/Indicator: TA1535, Metabolic Activation: HAMSTER LIVER S-9, AROCLOR-1254 (10%), Method: PREINCUBATION)?
A: inactive; negative

Q: What about the mutagenic call [1] of the same compound?
A: inactive; negative

Q: What about the mutagenic call (Test System: AMES SALMONELLA TYPHIMURIUM, Strain/Indicator: TA1535, Metabolic Activation: RAT LIVER S-9, AROCLOR-1254 (10%), Method: PREINCUBATION) of the same compound?
A: inactive; negative

Q: And the mutagenic call (Test System: AMES SALMONELLA TYPHIMURIUM, Strain/Indicator: TA1535, Metabolic Activation: RAT LIVER S-9, PHENOBARBITAL AND BETA-NAPHTHOFLAVONE NONE, Method: PREINCUBATION)?
A: inactive; negative

Q: What about the mutagenic call (Test System: AMES SALMONELLA TYPHIMURIUM, Strain/Indicator: TA1537, Metabolic Activation: HAMSTER LIVER S-9, AROCLOR-1254 (10%), Method: PREINCUBATION) of the same compound?
A: inactive; negative

Q: What about the mutagenic call [2] of the same compound?
A: inactive; negative

Q: And the mutagenic call (Test System: AMES SALMONELLA TYPHIMURIUM, Strain/Indicator: TA1537, Metabolic Activation: RAT LIVER S-9, AROCLOR-1254 (10%), Method: PREINCUBATION)?
A: inactive; negative

Q: What about the mutagenic call (Test System: AMES SALMONELLA TYPHIMURIUM, Strain/Indicator: TA1537, Metabolic Activation: RAT LIVER S-9, PHENOBARBITAL AND BETA-NAPHTHOFLAVONE NONE, Method: PREINCUBATION) of the same compound?
A: inactive; negative

Q: And the mutagenic call (Test System: AMES SALMONELLA TYPHIMURIUM, Strain/Indicator: TA2638, Metabolic Activation: NONE, Method: STANDARD PLATE)?
A: active; positive

Q: And the mutagenic call (Test System: AMES SALMONELLA TYPHIMURIUM, Strain/Indicator: TA2638A, Metabolic Activation: NONE, Method: STANDARD PLATE)?
A: active; positive

Q: And the mutagenic call (Test System: E. COLI, Strain/Indicator: WP2 UVRA (PKM101), Metabolic Activation: NONE, Method: STANDARD PLATE)?
A: active; positive

Q: And the mutagenic call (Test System: E. COLI, Strain/Indicator: WP2UVRA, Metabolic Activation: NONE, Method: PREINCUBATION)?
A: inactive; negative

Q: What about the mutagenic call (Test System: E. COLI, Strain/Indicator: WP2UVRA, Metabolic Activation: RAT LIVER S-9, PHENOBARBITAL AND BETA-NAPHTHOFLAVONE, Method: PREINCUBATION) of the same compound?
A: inactive; negative

Q: What about the mutagenic call (Test System: MOUSE LYMPHOMA, Strain/Indicator: L5178Y (TRIFLUOROTHYMIDINE), Metabolic Activation: NONE, Method: SUSPENSION/PLATE) of the same compound?
A: active; positive

Q: And the mutagenic call (Test System: UDS RODENT HEPATOCYTES, Strain/Indicator: THY INCORP (NON-S-PHASE), Metabolic Activation: NONE, Method: AUTORADIOGRAPHY)?
A: active; positive
